Assay results as given in ChEMBL document CHEMBL5625198, “Design, synthesis and biological evaluation of novel 3-hydroxypyridin-4(1H)-ones based hybrids as Pseudomonas aeruginosa biofilm inhibitors” (Eur J Med Chem, 2023).
Activity calls are given as the source filed them. The calls are words filed in the database; no cut-off is given here.

Assays:
Pseudomonas aeruginosa [1] = test: Antibiofilm activity against wild-type Pseudomonas aeruginosa PAO1 assessed as inhibition rate at 10 uM incubated for 24 hrs by crystal violet staining based assay relative to control; assay type: functional
Pseudomonas aeruginosa [2] = test: Antibacterial activity against wild-type Pseudomonas aeruginosa PAO1 assessed as bacterial growth inhibition by CLSI based broth-microdilution method; assay type: functional
Pseudomonas aeruginosa [3] = test: Antibiofilm activity against wild-type Pseudomonas aeruginosa PAO1 incubated for 24 hrs by crystal violet staining based assay; assay type: functional, organism-based
Pseudomonas aeruginosa [4] = test: Antibiofilm activity against wild-type Pseudomonas aeruginosa PAO1 at 2.5 uM incubated for 24 hrs by crystal violet staining based assay relative to control; assay type: functional
Pseudomonas aeruginosa [5] = test: Antibiofilm activity against wild-type Pseudomonas aeruginosa PAO1 at 20 uM incubated for 24 hrs by confocal laser scanning microscopy; assay type: functional, organism-based
Pseudomonas aeruginosa [6] = test: Anti-virulence effect in Pseudomonas aeruginosa PAO1 assessed as decrease in elastase level incubated for 24 hrs by fluorescence based assay; assay type: functional, organism-based; settings: dose 1.25-20 µM
Pseudomonas aeruginosa [7] = test: Anti-virulence effect in Pseudomonas aeruginosa PAO1 assessed as decrease in pyocyanin level incubated for 48 hrs by absorbance based assay; assay type: functional, organism-based; settings: dose 1.25-20 µM
Pseudomonas aeruginosa [8] = test: Effect on rhamnolipid level in Pseudomonas aeruginosa PAO1 at 1.25 to 20 uM incubated for 24 hrs by absorbance based assay; assay type: functional, organism-based; settings: dose 1.25-20 µM
[9] = Inhibition of quorum sensing system in Pseudomonas aeruginosa PAO1 harboring lasB-gfp assessed as decrease in lasB expression measured for 12 hrs by fluorescence based assay; settings: dose 1.25-20 µM
[10] = Inhibition of quorum sensing system in Pseudomonas aeruginosa PAO1 harboring pqsA-gfp assessed as decrease in pqsA expression measured for 12 hrs by fluorescence based assay; settings: dose 1.25-20 µM
Pseudomonas aeruginosa [11] = test: Effect on rhlA expression in Pseudomonas aeruginosa PAO1 harboring rhlA-gfp at 1.25 to 20 uM measured for 12 hrs by fluorescence based assay; assay type: functional; settings: dose 1.25-20 µM
Pseudomonas aeruginosa [12] = test: Inhibition of swarming motility in Pseudomonas aeruginosa PAO1 incubated for 16 hrs; assay type: functional, organism-based; settings: dose 1.25-20 µM
[13] = Cytotoxicity against African green monkey Vero cells assessed as cell viability at 3.125 to 50 uM incubated for 24 hrs by MTT assay; assay type: toxicity, cell-based; settings: chlorocebus sabaeus, dose 3.125-50 µM
Vero = test: Anti-virulence effect in African green monkey Vero cells infected with Pseudomonas aeruginosa assessed as increase in cell survival incubated for 24 hrs by MTT assay; assay type: functional, cell-based; settings: Chlorocebus sabaeus, dose <= 20.0 µM
[14] = Anti-virulence effect in African green monkey Vero cells infected with Pseudomonas aeruginosa assessed as cell survival at 20 uM incubated for 24 hrs by MTT assay (reference value: 37.7 %); assay type: functional; settings: Chlorocebus sabaeus, read-out: Activity
Pseudomonas aeruginosa [15] = test: Synergistic activity against Pseudomonas aeruginosa PAO1 assessed as reduction in ciprofloxacin MIC […] at 20 uM relative to control; assay type: functional; set-up: scale not given: the % may be the effect or the level left

SMILES	MIC (Pseudomonas aeruginosa [2]) [µM]	inhibition at 10 µM (Pseudomonas aeruginosa [1]) [%]	other results
Cc1ccc2[nH]c(SCC(=O)NCc3c(O)c(=O)cc(C)n3C)nc2c1	> 128	7.4	–
Cc1cc(=O)c(O)c(CNC(=O)CSc2nc3cc([N+](=O)[O-])ccc3[nH]2)n1C	> 128	51.5	IC50 (Pseudomonas aeruginosa [3]; PAO1, 24 h): 10.6 µM; Activity (Pseudomonas aeruginosa [3]; dose 1.25-20 µM): Dose-Dependent Effect; inhibition at 2.5 µM (Pseudomonas aeruginosa [4]): > 30%; Activity (Pseudomonas aeruginosa [5]): Active; Activity (Pseudomonas aeruginosa [6]): Dose-Dependent Effect; Activity (Pseudomonas aeruginosa [7]): Dose-Dependent Effect; Activity (Pseudomonas aeruginosa [8]): inactive; inhibition [9]: Dose-Dependent Effect; inhibition [10]: Dose-Dependent Effect; Activity (Pseudomonas aeruginosa [11]): inactive; inhibition (Pseudomonas aeruginosa [12]): Dose-Dependent Effect; Activity [13]: Non-Toxic; Activity (Vero): Dose-Dependent Effect; viability at 20 µM [14]: 71.5%; Activity (Pseudomonas aeruginosa [15]): ~50%
Cc1cc(=O)c(O)c(CNC(=O)CSc2nc3cc(F)ccc3[nH]2)n1C	> 128	34.7	–
Cc1cc(=O)c(O)c(CNC(=O)CSc2ncc[nH]2)n1C	> 128	46.1	–
Cn1cc(O)c(=O)cc1CNC(=O)CSc1nc2ccc([N+](=O)[O-])cc2s1	> 128	29.1	–
Cc1cc(=O)c(O)c(CNC(=O)CSc2nc3cc(Cl)ccc3o2)n1C	> 128	41.7	–
Cn1cc(O)c(=O)cc1CNC(=O)CSc1nc2ccccc2s1	> 128	-5.24	–
Cn1cc(O)c(=O)cc1CNC(=O)CSc1nc2cc([N+](=O)[O-])ccc2[nH]1	> 128	-15.2	–
Cc1cc(=O)c(O)c(CNC(=O)CSc2nc3c(F)cccc3o2)n1C	> 128	27.6	–
Cc1cc(=O)c(O)c(CNC(=O)CSc2nc3ccccc3s2)n1C	> 128	22.1	–
Cc1cccc2sc(SCC(=O)NCc3c(O)c(=O)cc(C)n3C)nc12	> 128	20.8	–
Cc1cc(=O)c(O)c(CNC(=O)CSc2nc3cc(OC(F)F)ccc3[nH]2)n1C	> 128	17.6	–
Cn1cc(O)c(=O)cc1CNC(=O)CSc1nc2ccccc2[nH]1	> 128	–	–
Cc1cc(=O)c(O)c(CNC(=O)CSc2nc3cc(C(F)(F)F)ccc3[nH]2)n1C	> 128	–	–
Cc1cc(=O)c(O)c(CNC(=O)CSc2nc3ccccc3[nH]2)n1C	> 128	44.6	–
Cc1cc(=O)c(O)c(CNC(=O)CSc2nc3cc(C(F)(F)F)ccc3o2)n1C	> 128	39.5	–
Cc1ccc2oc(SCC(=O)NCc3c(O)c(=O)cc(C)n3C)nc2c1	> 128	45.8	–
Cc1cc(=O)c(O)c(CNC(=O)CSc2nc3ccc(F)cc3s2)n1C	> 128	40.4	–
Cc1ccc2[nH]c(SCC(=O)NCc3cc(=O)c(O)cn3C)nc2c1	> 128	3.29	–
Cc1cc(=O)c(O)c(CNC(=O)CSc2nc3c(C(C)(C)C)cccc3o2)n1C	> 128	19.4	–
COc1ccc(SCC(=O)NCc2c(O)c(=O)cc(C)n2C)cc1	> 128	-13.6	–
Cc1cc(=O)c(O)c(CNC(=O)CSc2nc3ccc([N+](=O)[O-])cc3s2)n1C	> 128	45.5	–
Cc1cc(=O)c(O)c(CNC(=O)CSc2nc3cc(Cl)ccc3s2)n1C	> 128	5.12	–
Cc1cc(=O)c(O)c(CNC(=O)CSc2nc3cc(F)ccc3s2)n1C	> 128	5	–
Cc1cc(=O)c(O)c(CNC(=O)CSc2nc3cc(Cl)ccc3[nH]2)n1C	> 128	–	–
Cc1cccc2oc(SCC(=O)NCc3c(O)c(=O)cc(C)n3C)nc12	> 128	–	–
Cc1cc(=O)c(O)c(CNC(=O)CSc2nc3c([N+](=O)[O-])cccc3o2)n1C	> 128	30.6	–
Cc1cc(C)nc(SCC(=O)NCc2c(O)c(=O)cc(C)n2C)n1	> 128	22.6	–
Cc1cc(=O)c(O)c(CNC(=O)CSc2nccs2)n1C	> 128	46.4	–
COc1ccc2sc(SCC(=O)NCc3c(O)c(=O)cc(C)n3C)nc2c1	> 128	7.27	–

Second part, led by results:

MIC (Pseudomonas aeruginosa [2]) [µM]	SMILES	inhibition at 10 µM (Pseudomonas aeruginosa [1]) [%]	other results
> 128	Cc1cc(=O)c(O)c(CNC(=O)CSc2nc3ccc(F)cc3o2)n1C	25.4	–
> 128	COc1ccc2nc(SCC(=O)NCc3c(O)c(=O)cc(C)n3C)sc2c1	-22.4	–
> 128	Cc1cc(=O)c(O)c(CNC(=O)CSc2ccccn2)n1C	–	–
> 128	Cc1cc(=O)c(O)c(CNC(=O)CSc2nncs2)n1C	16.9	–
> 128	Cc1cc(=O)c(O)c(CNC(=O)CSc2nc3c(C(C)(C)C)cccc3[nH]2)n1C	14.5	–
> 128	COc1ccc2oc(SCC(=O)NCc3c(O)c(=O)cc(C)n3C)nc2c1	19.6	–
> 128	COc1ccc2[nH]c(SCC(=O)NCc3c(O)c(=O)cc(C)n3C)nc2c1	16.3	–
> 128	Cc1ccc2nc(SCC(=O)NCc3c(O)c(=O)cc(C)n3C)sc2c1	31.2	–
> 128	Cc1cc(=O)c(O)c(CNC(=O)CSc2nccn2C)n1C	30	–
> 128	Cc1cc(=O)c(O)c(CNC(=O)CSc2nc3ccccc3o2)n1C	26.2	–
> 128	CCOc1ccc2[nH]c(SCC(=O)NCc3c(O)c(=O)cc(C)n3C)nc2c1	-17.5	–
> 128	Cc1cc(=O)c(O)c(CNC(=O)CSc2nc3cc(C#N)ccc3[nH]2)n1C	41.3	–
> 128	Cc1cc(=O)c(O)c(CNC(=O)CSc2nc3cc([N+](=O)[O-])ccc3s2)n1C	10.1	–
> 128	Cc1nnc(SCC(=O)NCc2c(O)c(=O)cc(C)n2C)s1	-10.2	–
> 128	Cc1cc(=O)c(O)c(CNC(=O)CSc2ccc([N+](=O)[O-])cc2)n1C	31.9	–
> 128	Cc1cc(=O)c(O)c(CNC(=O)CSc2ncccn2)n1C	7.18	–
> 128	Cc1cc(=O)c(O)c(CNC(=O)CSc2ccncc2)n1C	–	–
